Consider 24 compounds from US20250034138A1, “Compounds and Compositions as C-Kit Kinase Inhibitors” (Enanta Pharmaceuticals, Inc., priority 2023, published 2025).

The subject of experiment [1] is M-07e cells which endogenously express human c-KIT. Nature of the experiment: M-07e Cellular Assay (SCF-mediated cell proliferation, CellTiter Glo). In kind it is cell-based. The note with it: read-out: M-07e EC50. As for the experimental part: 2. M-07e Cellular Assay M-07e cells (Creative Bioarray, CSC-CO249) which endogenously express human c-KIT were used to evaluate the effect of compounds on stem cell factor (SCF)-mediated cell proliferation. M-07e cells were cultured in growth media (RPMI+10% FBS+1% penicillin/streptomycin+10 ng/mL GM-CSF) at 5E5-1.5E6 cells/mL, replenishing media every 3-4 days. 1.5E4 cells were seeded per well in 384 well tissue culture treated plates in 20 μL assay media (RPMI+10% FBS+1% penicillin/streptomycin) without growth factor stimulation and incubated at 37° C. in a CO2 humidity-controlled incubator. Twenty-four hours later, three-fold serially diluted test compounds in media containing SCF (at the previously determined EC90) were added to the plated M-07e cells and incubated for an additional 72 hours. Cell viability was determined by adding 25 μL CellTiter Glo (Promega) to the cells and the luminescence was measured using a Perkin Elmer Envision plate reader. The EC50 was determined using GraphPad Prism. […] EC50 ranges are reported as follows: […]
(In general: Cellular ATP, detected with luciferase, serves as a proxy for viable cell number.)

Experiment [2] has as its target T1, Recombinant human c-KIT kinase (Homo sapiens, UniProt P10721).
T1 construct: purchased Promega V4498
Kind of experiment: c-KIT Kinase Chemiluminescence Assay (ADP-Glo). In kind it is biochemical. The note with it: recombinant human c-KIT 30-40 nM, ATP 50 μM, polyEY substrate, ADP-Glo luminescence. From the text:
Staurosporine (AM-2282) and Imatinib (STI571) were purchased from Selleck Chemicals LLC (Houston, TX). The c-KIT reference compound THB001 (EP-053504) was synthesized by Enanta Pharmaceuticals, Inc. (Watertown, MA). The c-KIT Kinase Enzyme System (V4498) and ADP-Glo™ Kinase Assay kit (V6930) were purchased from Promega (Madison, WI). DMSO (D2650) was purchased from Sigma-Aldrich (Burlington, MA). ECHO-650 acoustic liquid handling system (67492212) and 384-well LDV ECHO source plates (LP-0200) were purchased from Labcyte, Inc (San Jose, CA). Envision Multimode Plate Reader (2104/464466) and ProxiPlate-384 Plus White 384-shallow well microplates (6008280) were purchased from PerkinElmer (Waltham, MA).
1. c-KIT Kinase Chemiluminescence Assay:
IC50 determination. Test compounds were dispersed into a 384-well low volume while ProxiPlate microplate from a DMSO solution using an ECHO 650 acoustic dispenser to generate a 11-point, 3.162-fold dilution, concentration curve starting at 10 μM in duplicate. Kinase Reaction: The kinase assay was based on the recommended protocol by c-KIT Kinase Enzyme System from Promega. Recombinant human c-KIT kinase in 3 μL of assay buffer (40 mM Tris pH 7.5, 20 mM MgCl2, 0.1 mg/mL BSA and 50 μM DTT) was added to the test or high control wells and 3 μL of assay buffer was added to the low control wells. The microplate was centrifuged at 800 rotations per minute (rpm) for 60 s and incubated at room temperature (RT) for 30 min. Next, 2 μL of buffered ATP and polyEY substrate solution was added to all wells. The microplate was centrifuged at 800 rpm for 60 s and incubated at RT for 2 h. The final assay contained c-KIT (30-40 nM), ATP (50 μM), polyEY substrate (0.2 μg/μL), test compounds (0-10 μM) and DMSO (1.7%) in 5 μL assay buffer. ADP detection with ADP-Glo™ Kinase Assay: After the kinase reaction incubation, 5 μL of ADP-Glo™ reagent was added to all wells. The microplate was centrifuged at 800 rpm for 60 s and incubated at RT for 40 min. Ten microliter (10 μL) of Kinase Detection Reagent (Luciferin-Luciferase system) was then added to all wells. The microplate was centrifuged at 800 rpm for 60 s and incubated at RT for 60 min. Kinase activity was measured as increase in luminescence at RT in an Envision plate reader equipped with 560 nm filters and operating in endpoint mode.
Data Analysis: Endpoint chemiluminescence from high and low control wells were used to calculate normalized c-KIT activity at various concentrations of test compounds. The normalized activities were fitted to inhibitor-versus-normalized response fit in GraphPad Prism 7 to determine half-maximal inhibitory concentration (IC50) and hill coefficient values (H).
c-KIT activity (%)=100/(1+I^H/IC50^H). Where I is the inhibitor concentration and H is the Hill coefficient. IC50 ranges are reported as follows: A<100 nM; B 0.1-1 μM; C>1 μM.
In general terms: ADP-Glo turns the ADP formed in a reaction into a luminescent signal.

[3] abbreviates: SCF (EC90)-stimulated M-07e cell proliferation, 72 hours, CellTiter Glo.

Each structure is given as a SMILES string. Where two headings read alike, the source gives them in different places. A value given as a limit tells only on which side of the number the result lay.

T1 sequence (P10721 26-976): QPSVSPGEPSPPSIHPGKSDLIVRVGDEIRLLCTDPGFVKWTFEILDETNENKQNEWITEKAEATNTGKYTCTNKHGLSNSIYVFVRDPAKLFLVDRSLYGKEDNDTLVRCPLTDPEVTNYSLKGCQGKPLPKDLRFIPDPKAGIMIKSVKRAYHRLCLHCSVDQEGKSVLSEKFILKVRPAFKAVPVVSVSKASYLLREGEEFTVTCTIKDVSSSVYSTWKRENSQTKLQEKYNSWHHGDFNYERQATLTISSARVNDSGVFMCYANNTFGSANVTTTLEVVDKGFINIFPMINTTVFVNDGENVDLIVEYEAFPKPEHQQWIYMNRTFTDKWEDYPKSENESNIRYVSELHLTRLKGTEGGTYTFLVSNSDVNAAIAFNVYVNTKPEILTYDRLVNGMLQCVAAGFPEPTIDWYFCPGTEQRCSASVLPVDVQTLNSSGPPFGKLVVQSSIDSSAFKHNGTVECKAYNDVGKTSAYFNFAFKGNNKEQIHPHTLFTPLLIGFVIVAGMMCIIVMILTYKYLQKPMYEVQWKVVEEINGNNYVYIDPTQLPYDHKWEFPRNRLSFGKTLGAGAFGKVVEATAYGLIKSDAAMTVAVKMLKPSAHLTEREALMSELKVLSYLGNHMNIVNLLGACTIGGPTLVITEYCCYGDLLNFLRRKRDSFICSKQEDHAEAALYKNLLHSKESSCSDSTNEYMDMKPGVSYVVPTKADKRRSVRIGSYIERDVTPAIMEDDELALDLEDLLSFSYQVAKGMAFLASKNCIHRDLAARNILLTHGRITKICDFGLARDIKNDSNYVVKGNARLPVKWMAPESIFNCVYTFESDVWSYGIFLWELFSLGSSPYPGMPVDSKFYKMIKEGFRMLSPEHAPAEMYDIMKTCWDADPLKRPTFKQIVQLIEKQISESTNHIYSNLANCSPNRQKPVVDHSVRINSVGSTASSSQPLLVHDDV

In general, EC50 refers to the concentration giving half of the maximal effect. The IC50 is the concentration that inhibits the measured activity by half. In the case of `Cc1ccc(-c2nc3n(n2)CCNC3)cc1NC(=O)c1cnc2ccccn12` [Example 6-16], the EC50 in experiment [1] (setting [3]) was greater than 1000 nM. The IC50 in experiment [2] is 100 to 1000 nM.

Take `Cc1ccc(-c2nc3n(n2)CCN(C(=O)[C@H]2C[C@@H]2F)C3)cc1NC(=O)c1cnc2ccccn12` [Example 6-18]: the EC50 in experiment [1] (setting [3]) was in the range of 100 to 1000 nM. Further, the IC50 in experiment [2] lay in the range of 100 to 1000 nM.

As to `Cc1ccc(-c2nc3n(n2)C[C@H](C(F)(F)F)CC3)cc1NC(=O)c1cnc2ccccn12` [Example 6-21], the EC50 in experiment [1] (setting [3]) was less than 100 nM. Also, the IC50 in experiment [2] was less than 100 nM.

On to `Cc1ccc(-c2nc3cc(C4CC4)ccn3n2)cc1NC(=O)c1cnc2ccccn12` [Example 6-23], for which the EC50 in experiment [1] (setting [3]) is less than 100 nM. For the same compound, the IC50 in experiment [2] is less than 100 nM.

Regarding `Cc1ccc(-c2nc3ccc(C4CC4)cn3n2)cc1NC(=O)c1cnc2ccccn12` [Example 6-24], in experiment [1] (setting [3]), the EC50 is less than 100 nM. Moreover, the half-maximal inhibitory concentration (IC50) in experiment [2] was less than 100 nM.

Regarding `Cc1ccc(-c2nc(C3CC3)n(C)n2)cc1NC(=O)c1cnc2ccccn12` [Example 6], the EC50 in experiment [1] (setting [3]) lay in the range of 100 to 1000 nM. Besides, in experiment [2], the IC50 lay within 100 to 1000 nM.

Consider `Cc1ccc(-c2cn(C3CC(F)(F)C3)nn2)cc1NC(=O)c1cnc2ccccn12` [Example 7], for which, in experiment [1] (setting [3]), the EC50 is less than 100 nM. In addition, in experiment [2], the IC50 was less than 100 nM.

Regarding `Cc1ccc(-n2nnc(C3CC(F)(F)C3)n2)cc1NC(=O)c1cnc2ccccn12` [Example 8], the EC50 in experiment [1] (setting [3]) is less than 100 nM. Besides, in experiment [2], the IC50 was less than 100 nM.

For `Cc1ccc(-n2nnc(-c3ccc(F)cc3)n2)cc1NC(=O)c1cnc2ccccn12` [Example 9-1], the EC50 in experiment [1] (setting [3]) lay in the range of 100 to 1000 nM. Moreover, the IC50 in experiment [2] was in the range of 100 to 1000 nM.

For the compound `Cc1ccc(-n2nnc(-c3cccc(F)c3)n2)cc1NC(=O)c1cnc2ccccn12` [Example 9-2], the EC50 in experiment [1] (setting [3]) was in the range of 100 to 1000 nM. In addition, the IC50 in experiment [2] was 100 to 1000 nM.

Consider `Cc1ccc(-c2coc(C3CC(F)(F)C3)n2)cc1NC(=O)c1cnc2ccccn12` [Example 10], for which the EC50 in experiment [1] (setting [3]) is less than 100 nM. Further, in experiment [2], the IC50 was less than 100 nM.

As to `Cc1ccc(-c2coc([C@H]3C[C@@H]3F)n2)cc1NC(=O)c1cnc2ccccn12` [Example 11-1], in experiment [1] (setting [3]), the EC50 was less than 100 nM. Also, the IC50 in experiment [2] was in the range of 100 to 1000 nM.

As for `Cc1ccc(-c2nc3cc(F)ccc3o2)cc1NC(=O)c1cnc2ccccn12` [Example 11-2], the EC50 in experiment [1] (setting [3]) is less than 100 nM. Moreover, the IC50 in experiment [2] was less than 100 nM.

Turning to `Cc1ccc(-c2nc3ccccc3o2)cc1NC(=O)c1cnc2ccccn12` [Example 11-3], in experiment [1] (setting [3]), the EC50 was less than 100 nM. Besides, the IC50 in experiment [2] lay in the range of 100 to 1000 nM.

`Cc1ccc(-c2nc3ccccc3s2)cc1NC(=O)c1cnc2ccccn12` [Example 11-4]: the EC50 in experiment [1] (setting [3]) was in the range of 100 to 1000 nM. The IC50 in experiment [2] is less than 100 nM.

With `Cc1ccc(-c2nc3ccc(F)cc3o2)cc1NC(=O)c1cnc2ccccn12` [Example 11-5], the EC50 in experiment [1] (setting [3]) was 100 to 1000 nM. Further, the IC50 in experiment [2] is 100 to 1000 nM.

In the case of `Cc1ccc(-c2nc3ccccc3[nH]2)cc1NC(=O)c1cnc2ccccn12` [Example 11-6], in experiment [1] (setting [3]), the EC50 is less than 100 nM. Also, the IC50 in experiment [2] was less than 100 nM.

With `Cc1ccc(-c2nc3ccccc3n2C)cc1NC(=O)c1cnc2ccccn12` [Example 11-7], in experiment [1] (setting [3]), the concentration giving a half-maximal response (EC50) is 100 to 1000 nM. Further, the IC50 in experiment [2] was greater than 1000 nM.

In the case of `Cc1ccc(-c2nc3ccc(F)cc3[nH]2)cc1NC(=O)c1cnc2ccccn12` [Example 11-8], the EC50 in experiment [1] (setting [3]) is less than 100 nM. For the same compound, the IC50 in experiment [2] is less than 100 nM.

Turning to `Cc1ccc(-c2nc3ccc(C(F)(F)F)cc3[nH]2)cc1NC(=O)c1cnc2ccccn12` [Example 11-9], the EC50 in experiment [1] (setting [3]) was less than 100 nM. Besides, the IC50 in experiment [2] is less than 100 nM.

Regarding `Cc1ccc(-c2cnn(C3CC(F)(F)C3)n2)cc1NC(=O)c1cnc2ccccn12` [Example 11-10], the EC50 in experiment [1] (setting [3]) is less than 100 nM. Further, the IC50 in experiment [2] is less than 100 nM.

With `Cc1ccc(-n2cc(C3CC(F)(F)C3)nn2)cc1NC(=O)c1cnc2ccccn12` [Example 11-12], the EC50 in experiment [1] (setting [3]) was less than 100 nM. Further, the IC50 in experiment [2] is less than 100 nM.

Consider `Cc1ccc(-n2ncc3ccccc32)cc1NC(=O)c1cnc2ccccn12` [Example 11-13], for which, in experiment [1] (M-07e, 72 h), the EC50 fell in the range of 100 to 1000 nM. Further, the half-maximal inhibitory concentration (IC50) in experiment [2] is greater than 1000 nM.

With `Cc1ccc(-c2c[nH]c(C3CC(F)(F)C3)n2)cc1NC(=O)c1cnc2ccccn12` [Example 11], the EC50 in experiment [1] (setting [3]) lay in the range of 100 to 1000 nM. In addition, the IC50 in experiment [2] lay in the range of 100 to 1000 nM.
